How the values were obtained:
SMA type I (1-38G) MNs = assay: MitoStress assay in SMA type I MNs; assay type: cell-based, human; details: 5 μM C12
spliced XBP1 (sXBP1) = assay: qPCR of ER stress transcript spliced XBP1 in ALS MN cultures; assay type: cell-based, human; details: ALS MNs, day 31; C12 5 μM, Riluzole 5 μM, Edaravone 100 μM
Description: (§1) Cells were harvested in Trizol reagent for RNA extraction following manufacturer's instructions. Purified RNA was converted to cDNA using the High-Capacity cDNA Reverse Transcription kit, and quantitative PCR (qPCR) was performed on the QuantStudio 5 Real-Time PCR System using PowerUp™ SYBR™ Green Master Mix (all from Applied Biosystems). Gene expressions were normalized to HPRT and ACTB expression unless otherwise stated.

ALS MNs [1] = assay: Metabolic flux analysis, Glycolysis stress assay (ECAR) in ALS MNs; assay type: cell-based, human; details: for glycolysis: C12 5 μM, siRNA 3 days
Description: (§2) Motor neuron cultures at day 27 were dissociated with Accutase and seeded at 2 million cells per well in a 6-well plate. At day 28, non-targeting siRNA or siRNAs were individually complexed with Lipofectamine RNAiMAX following manufacturer's instructions and added to the motor neuron cultures. For each well, 10 pmol of siRNAs and 8 μl of Lipofectamine RNAiMAX were used. Cells were either harvested for RNA and protein analyses, fixed for immunostaining or metabolic flux analysis were performed 3 days after siRNA transfection.

[2] = system: mitochondrial acetyl-lysine proteins; assay: Western blot of acetyl-lysine proteins in purified mitochondrial extracts of ALS MNs; assay type: cell-based, human; details: panel of ALS MNs, 5 μM C12, day 31
Description: (§3) Protein lysates were resolved in 12% SDS-PAGE gels or 4-20% precast gels in Tris-Glycine-SDS buffer. Proteins were then transferred to a nitrocellulose membrane and blocked with 5% milk in TBST buffer. Primary antibodies were diluted in 5% milk and incubated with the membranes overnight at 4° C. Membranes were washed thrice in TBST buffer. The corresponding horseradish peroxidase secondary antibodies (Life Technologies) were then diluted 1:5000 in 5% milk and incubated at room temperature for 90 minutes. Blots were washed thrice before exposing to ECL for imaging.
(§4) Mitochondria from motor neuron cultures were isolated using the MACS technology. Motor neurons culture were first Accutase and wash twice with PBS before resuspending in ice cold Lysis buffer. The cells were then homogenized with a dounce homogenizer (Pestle B) 15 strokes. The homogenate was diluted with 1× separation buffer based on manufacturer's instructions. Anti-TOM22 were added to magnetically label the mitochondria before incubating at 4° C. for 1 hour. The cells were then washed twice and filtered prior to loading into the separation column (LS column) that was attached to a magnetic stand (all from Miltenyi Biotec). After three rounds of washing, the column was removed from the magnetic stand and labelled mitochondria were eluted in storage buffer for downstream applications.

ALS MNs [3] = assay: Motor neuron survival assay (ISL1+ MNs) in ALS iPSC-derived MNs; assay type: cell-based, human; details: for MN survival (ISL1+ MNs): ALS MNs, treatment from day 28, NAM 0.5 mM, C12 5 μM, Riluzole 5 μM, Edaravone 100 μM, siRNA 10 pmol
Description: Cultures were then fixed with 4% PFA on Day 25, 28, 31 and 35 respectively for quantification of motor neuron survival. Fixed cultures were stained with the motor neuron marker ISL1, and cellular nuclei were counterstained with DAPI before imaging on the high content microscope Phenix (Perkin Elmer). Percentage of ISL1+ cells was normalized to total nuclei number. To calculate normalized survival index, the percentage of ISL1+/DAPI at day 25 was arbitrary set as 1.0, and motor neuron survival on later days were in turn normalized to day 25 cultures.
as §2

CHOP = assay: qPCR of ER stress transcript CHOP in ALS MN cultures; assay type: cell-based, human; details: ALS MNs, day 31; C12 5 μM, Riluzole 5 μM, Edaravone 100 μM
Description: as §1

total MnSOD = assay: Western blot of total MnSOD protein levels in C12-treated MNs; assay type: cell-based, human; details: BJ-SOD1^L144F MNs, increasing doses of C12, day 31
Description: as §3

mitochondrial Complex I = assay: Complex I activity in ALS MNs; assay type: cell-based, human; details: day 31, C12
Description: Cell lysates were prepared using Complex I Enzyme Activity Microplate Assay Kit (Abcam), following the manufacturer's instructions. Activity of Complex I was recorded, normalized and quantified based on manufacturer's instructions. Biological triplicates were performed with a minimum of 3 technical replicates each.

SIRT1 = molecular target: T1, SIRT1 (Homo sapiens, UniProt Q96EB6); assay: Cellular thermal shift assay (CETSA), SIRT1; details: 20 μM C12, 1 hour, intact HEK293T cells, 48-68° C.
T1 sequence (Q96EB6 1-747): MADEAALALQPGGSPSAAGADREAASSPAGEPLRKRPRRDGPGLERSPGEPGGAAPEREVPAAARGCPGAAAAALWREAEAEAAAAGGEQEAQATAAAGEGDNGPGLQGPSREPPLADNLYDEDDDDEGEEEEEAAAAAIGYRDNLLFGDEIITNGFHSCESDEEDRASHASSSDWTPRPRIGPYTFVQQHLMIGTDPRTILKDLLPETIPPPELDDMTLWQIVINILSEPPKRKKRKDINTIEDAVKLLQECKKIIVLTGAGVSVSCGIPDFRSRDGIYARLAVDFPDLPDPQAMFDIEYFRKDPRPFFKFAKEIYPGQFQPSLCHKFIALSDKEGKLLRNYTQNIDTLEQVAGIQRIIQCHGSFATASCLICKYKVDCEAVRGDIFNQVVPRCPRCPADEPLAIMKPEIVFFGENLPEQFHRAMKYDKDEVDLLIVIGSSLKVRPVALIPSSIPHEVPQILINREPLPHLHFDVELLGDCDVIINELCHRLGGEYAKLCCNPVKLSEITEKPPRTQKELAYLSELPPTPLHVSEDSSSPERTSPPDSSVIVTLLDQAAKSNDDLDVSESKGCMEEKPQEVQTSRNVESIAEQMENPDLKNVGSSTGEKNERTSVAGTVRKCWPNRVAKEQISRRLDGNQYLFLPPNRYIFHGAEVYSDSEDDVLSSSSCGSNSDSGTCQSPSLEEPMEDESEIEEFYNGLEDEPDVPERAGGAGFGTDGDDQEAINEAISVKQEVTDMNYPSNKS
Description: CETSA was performed as previously described (3) and HEK293T cells were used to carry out the experiment. […] After the incubation, the cells were harvested, washed, pellet down and resuspended in 1 mL of PBS. Equal amounts of cell suspensions were aliquoted into Eppendorf tubes. The cell suspensions were then heated (48-68° C.) and lysed using 2 cycles of freeze-thawing. The soluble fractions were isolated and analyzed by Western blot analysis as described above.

ALS MNs [4] = assay: Metabolic flux analysis, MitoStress assay (OCR) in ALS MNs; assay type: cell-based, human; details: for ATP production / basal respiration / spare respiratory capacity: NAM 0.5 mM, siRNA 3 days; for ATP production: C12 5 μM; for mitochondrial respiration / metabolic profile: day 31, C12 5 μM, Riluzole 5 μM, Edaravone 100 μM
Description: (§5) After dissociating with Accutase, cells were blocked with solution containing phosphate-buffered saline, 0.5% bovine serum albumin (BSA) and 2 mM EDTA. The cells were then incubated with CD171-APC antibody (Miltenyi Biotec) and PSA-NCAM-APC antibody (Miltenyi Biotec) for 10 mins at 4° C. After washing, the cells were then incubated with anti-APC microbeads for 15 minutes at 4° C. The cells were then washed twice and filtered prior to loading into the separation column (LS column) that was attached to a magnetic stand (all from Miltenyi Biotec). After three rounds of washing, the column was removed from the magnetic stand and labelled cells were eluted in culture media for replating.
as §2

ALS MNs [5] = assay: Neuronal morphology (soma size, primary neurites) in ALS MNs; assay type: cell-based, human; details: for number of primary neurites / soma size: day 31; for neuronal morphologies: day 31, NAM 0.5 mM, C12 5 μM, Riluzole 5 μM, Edaravone 100 μM, siRNA
Description: Cells were fixed in 4% paraformaldehyde for 15 minutes, permeabilized in 0.1% Triton X-100 for 15 minutes and blocked in buffer containing 5% FBS and 1% BSA for an hour at room temperature. Primary antibodies (Table S4) were diluted in blocking buffer and incubated overnight at 4° C. Cells were washed thrice in PBS. The respective secondary antibodies were diluted 1:1500 in blocking buffer and incubated at room temperature, in the dark, for 90 minutes. DAPI was used at 0.1 μg/ml to visualize cellular nuclei.
Images were acquired using the high content microscope Phenix (Perkin Elmer) using the 20× air objective. Image analyses including cell counts and intensity measurements were performed using Columbus (Perkin Elmer).
For primary neurites analysis, neuronal projections from the soma size was determined based on SMI-32 staining. For soma size analysis, cellular nuclei were identified by DAPI, and the cytoplasmic area surrounding the nucleus was determined based on SMI-32 staining. Soma size area was measured by image analysis software (ImageJ, NIH) based on the cytoplasmic area surrounding the nucleus, excluding neuronal projections.

ALS patients = details: cited from earlier work
healthy MNs [6] = assay: Mitochondrial NAD+ quantification in healthy iPSC-derived MNs; assay type: cell-based, human; details: NAM supplementation
Description: as §4
(§6) Mitochondria from motor neuron cultures (10 million cells) were isolated using the MACS technology (as described above). Mitochondrial NAD+ was prepared quantified using NAD/NADH-Glo™ Assay (Promega) following manufacturer's instructions. Briefly, isolated mitochondria were first diluted in PBS, bicarbonate base buffer and 1% DTAB in a ratio of 2:1:1. […] After heating, 0.5M of Trizma base was added to the suspension and levels of mitochondrial NAD^+ were recorded, normalized to NAD^+ standard curve and quantified based on manufacturer's instructions (Promega). […]

healthy MNs [7] = assay: Metabolic flux analysis, MitoStress assay (OCR) in healthy MNs; assay type: cell-based, human
Description: as §5, §2

ALS MNs [8] = assay: Mitochondrial NAD+ quantification in ALS iPSC-derived MNs; assay type: cell-based, human; details: 0.5 mM NAM
Description: as §4, §6

GCN5L1 = GCN5L1 knockdown by siRNA in iPSC-derived MNs (qPCR); assay type: cell-based, human; details: day 31, vs non-targeting siRNA
Description: as §2, §1

Molecule | expression of ER stress transcript sXBP1 (spliced XBP1 (sXBP1)) | glycolysis (ALS MNs [1]) | MN survival (ISL1+ MNs) (ALS MNs [3]) | expression of ER stress transcript CHOP (CHOP) | ATP production (ALS MNs [4]; SIRT3 lentivirus day 28-31) | mitochondrial respiration / metabolic profile (ALS MNs [4]) | number of primary neurites (ALS MNs [5]) | soma size (ALS MNs [5]) | neuronal morphologies (ALS MNs [5]) | efficacy in ALS patients (ALS patients) | hyper-glycolytic metabolic profile / phenotype (ALS MNs [1]) | basal respiration (ALS MNs [4]; SIRT3 lentivirus day 28-31) | spare respiratory capacity (ALS MNs [4]; SIRT3 lentivirus day 28-31) | other results
COc1ccc(-c2cc3ccc(O)cc3oc2=O)cc1 [C12, 7-hydroxy-3-(4′-methoxyphenyl) coumarin] | significantly reduced | reduced glycolysis | promoted ALS MN survival | significantly reduced | rescued ATP production back to healthy levels | promoted mitochondrial respiration | increased number of primary neurites | enlarged soma sizes | improved neuronal morphologies | – | – | – | – | metabolic defect (basal respiration, ATP production) (SMA type I (1-38G) MNs): did not improve the metabolic defect; mitochondrial acetyl-lysine signals [2]: significantly reduced; cytotoxicity (ALS MNs [3]; 10 μM C12, ALS MNs (BJ-SOD1^L144F)): cytotoxic; total MnSOD protein levels (total MnSOD): remains unchanged; mitochondrial Complex I activity (mitochondrial Complex I): increased mitochondrial Complex I activity; thermal stability of SIRT1 (SIRT1): but not another abundantly expressed sirtuin, SIRT1
CC1=NN(c2ccccc2)C(=O)C1 [Edaravone] | significantly reduced | – | promoted ALS MN survival | significantly reduced | – | did not show any significant changes | no significant change | no significant change | did not improve neuronal morphologies | efficacy only in a small subset of ALS patients | – | – | – | –
NC(=O)c1cccnc1 [NAM, Nicotinamide] | – | – | promoted ALS MN survival | – | significantly improved | – | – | – | healthier neuronal morphologies | – | corrected the hyper-glycolytic metabolic profile | significantly improved | significantly improved | mitochondrial NAD+ levels (healthy MNs [6]): did not elevate; mitochondrial respiration (OCR parameters) (healthy MNs [7]): no significant effects; mitochondrial NAD+ levels (ALS MNs [8]): significantly elevated
Nc1nc2ccc(OC(F)(F)F)cc2s1 [Riluzole] | significantly reduced | – | – | significantly reduced | – | – | – | – | – | efficacious amongst bulbar-onset ALS patients and not in subjects with limb-onset ALS | – | – | – | lifespan extension (ALS patients; on average): 3 months
GCN5L1 siRNA: siRNA against human GCN5L1, Dharmacon J-012580-09-0010 (AGAGGAGGCGAGAGGCUAU; listed as RNA, further chemistry not given here) | – | reduced | promoted survival | – | rescued ATP production back to healthy levels | – | – | – | healthier neuronal morphologies | – | reduced hyper-glycolytic phenotype | significant improvements | significant improvements | basal acidification (ALS MNs [1]): reduced; glycolytic capacity (ALS MNs [1]): reduces glycolytic capacity; ATP production (ALS MNs [4]; SIRT3 lentivirus day 28-31, listed as siRNAs targeting GCN5L1): significant improvements; GCN5L1 knockdown (GCN5L1): 60%

Reference: patent US12662672B2, “Method of promoting survival and/or function of a motor neuron and related agents, uses and methods” (Agency for Science, Technology and Research, priority 2019, dated 2026)
